Here are results for 1 compound from patent US20130310347A1, “MULTI-MODALITY MOLECULAR IMAGING HIGH-THROUGHPUT ASSAY FOR IDENTIFYING HEAT SHOCK PROTEIN 90 (HSP90) INHIBITORS” (The Board of Trustees of the Leland Stanford Junior …, priority 2012, published 2013).

Data set [1] can be described thus: Body weight of treated mice. Type of data set: in vivo. To be noted: 43 h; P>0.05.
Data set [2] has as its target T1, Hsp90α/p23 interactions (Homo sapiens, UniProt P07900).
T1 construct: expressed in transfected cells; also with FL-eGFP reporter (293Tα-FG) and as xenografts in nude mice
As to the kind of experiment: CP9 analogue evaluation, RL/FL imaging in 293Tα-FG cells. Type of data set: cell-based. The conditions noted are these: time- and dose-response curves in 293T-FG cells; read-out: IC50 for inhibition of Hsp90α/p23 signals. As for the experimental part: To improve the efficacy of CP9 in disruption of Hsp90(α/β)/p23 interactions in living mice, a structure-activity relationship (SAR) study was performed using 62 structural analogues (10 μM) with different modifications on CP9, as shown in FIGS. 2A-2G, using the 293T(α/β)-FG stable cells. Their effects on Hsp90(α/β)/p23 interactions and cell proliferation were monitored by sequential RL (FIG. 11A) and FL imaging at 24 h. CP9, PU-H71 and 17-AAG were used as positive controls. The net effect on Hsp90(α/β)/p23 interactions was determined by normalizing RL to that of FL signals and to that of carrier control-treated cells (FIG. 11B).
The IC50 for growth inhibition by A17 was about 2-fold lower than that of CP9 (FIG. 12A).
CP9 (0.3-10 μM), 17-AAG (10 μM) and PU-H71 (5 μM) were used as positive controls in triplicate wells. The efficacy of the analogues in disruption of Hsp90(α/β)/p23 and cell proliferation were monitored by RL imaging (2 h post upon addition of ENDUREN® at 30 μM final concentration) followed by FL imaging (10 mins post addition of D-Luc at 0.225 mg/ml final concentration) using a cooled CCD camera (1 min and 10 sec for RL and FL imaging, respectively). […] The effect of the CP9 analogues on degradation of Hsp90 client proteins in 293T cells were also monitored by western blotting as described above.

The nature of data set [3]: logP value (partition coefficient). Type of data set: physicochemical.
Data set [4] concerns Hsp90 client proteins. As to the kind of experiment: Western blotting of Hsp90 client proteins in normal MEF cells. The conditions noted are these: normal mouse embryonic fibroblasts. Type of data set: cell-based. From the text:
CP9 had no effect on the expression of the Hsp90 client proteins in normal mouse embryonic fibroblasts (MEF) cells (FIG. 10C).

The target of data set [5] is T2, Hsp90β/p23 interactions (Homo sapiens, UniProt P08238).
T2 construct: expressed in transfected cells; also with FL-eGFP reporter (293Tβ-FG) and as xenografts in nude mice
T2 sequence (P08238 whole entry): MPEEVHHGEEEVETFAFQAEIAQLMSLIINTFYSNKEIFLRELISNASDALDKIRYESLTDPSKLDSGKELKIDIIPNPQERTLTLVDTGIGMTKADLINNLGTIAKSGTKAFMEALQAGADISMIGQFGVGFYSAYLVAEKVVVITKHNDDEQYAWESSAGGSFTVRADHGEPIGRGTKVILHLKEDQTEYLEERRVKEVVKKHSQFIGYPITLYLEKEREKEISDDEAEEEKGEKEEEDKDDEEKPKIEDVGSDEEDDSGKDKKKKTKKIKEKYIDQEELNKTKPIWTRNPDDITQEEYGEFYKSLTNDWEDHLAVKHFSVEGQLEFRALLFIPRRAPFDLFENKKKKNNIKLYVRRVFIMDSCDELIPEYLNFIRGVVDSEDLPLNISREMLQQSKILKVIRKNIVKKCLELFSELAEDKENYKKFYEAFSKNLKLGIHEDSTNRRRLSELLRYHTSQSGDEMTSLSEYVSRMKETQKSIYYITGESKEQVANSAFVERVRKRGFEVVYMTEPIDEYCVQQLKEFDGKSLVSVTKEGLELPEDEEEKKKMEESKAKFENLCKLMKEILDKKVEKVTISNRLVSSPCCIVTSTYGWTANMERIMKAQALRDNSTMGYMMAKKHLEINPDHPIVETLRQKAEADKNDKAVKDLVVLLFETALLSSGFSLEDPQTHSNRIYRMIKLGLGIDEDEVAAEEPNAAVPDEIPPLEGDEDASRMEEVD
As to the kind of experiment: HTS dose response, 293T cells stably expressing Hsp90β/p23 split RL reporters. To be noted: inhibition of bioluminescence signals by 50% vs carrier control; 8 point dose response 0.156-20 μM; 24 h. Type of data set: cell-based. How it is done:
Novel Hsp90 inhibitors using a commercial 30,176 small molecule chemical compound library with unknown targets and molecular mechanisms (FIG. 9B) were also identified. 293T cells stably expressing Hsp90α/p23 or Hsp90β/p23 split RL reporters were treated with each compound at 8.3 μM.
Baseline complemented RL activities were determined 90 mins after addition of 20 μl of ENDUREN® (10 μM final concentration) (Promega, Madison, Wis.) using the Analyst GT (Molecular Device, Sunnyvale, Calif.), with an acquisition time of 0.2 sec per well. Cells were incubated with compounds for 24 h prior to re-determination of complemented RL activities, and normalized to the mean RL activities of untreated cells in columns 1-2. Another small molecule chemical library with 30,176 compounds (SPECS, Wakefield, R.I.) was also used in screening modulators of Hsp90(α/β)/p23 inhibitors (at 8.3 μM, one drug per well for initial screening). For dose response/confirmation assay the compounds were tested in duplicate in an 8 point (0.156-20 μM) dose response assay for RL activities for both Hps90(α/β)/p23 interactions. The effect of each compound on cell proliferation at 20 μM was determined using Cell Titer-Blue assay in duplicate wells. […]

Data set [6] has as its system V79 lung cancer cells. Briefly: Sensitivity to DOX, Alamar Blue assay. Type of data set: cell-based. The conditions noted are these: DOX 0.31-10 μM with CP9 8 μM, 24 h. As for the experimental part:
(§1) FIGS. 13A-13C illustrate the inhibition of cell proliferation of DOX-resistant V79/ADR lung cancer cells by CP9 and the Hsp90 inhibitor PU-H71 in cell culture. V79 lung cancer cells and […] cells that are resistant to DOX were treated with DOX (0.31-10 μM) in the presence or absence of CP9 (8 μM) for 24 h before determination of cell number by an Alamar Blue assay.
(§2) Both Hsp90 isoforms (α and β) are expressed in cancer cells, but Hsp90β is constitutively expressed, whereas the expression of Hsp90α is highly inducible during stress and drug treatment. Using the genetically encoded split Renilla reporter system according to the disclosure, it was possible to decipher the individual contributions of each isoform in determining the sensitivity of Hsp90 inhibitors. It was reported that the transcription of MDR1 is regulated by HSF-1, which in turn is regulated by Hsp90α (Trepel et al., (2010) Nat. Rev. Cancer 10: 537-549). To determine the biological significance of CP9 selectivity in inhibiting Hsp90α/p23 interactions, V79 lung cancer cells and V79/ADR cells that overexpress multidrug-resistant protein and are insensitive to growth inhibition by doxorubicin (DOX) were used. V79 and V79/ADR cells were treated with DOX alone or in the presence of CP9. On the other hand, the addition of CP9 sensitized V79/ADR cells to DOX, as shown by the decrease in cell proliferation relative to treatment with DOX alone, as shown in FIG. 13B. […] The results also are consistent with the observation that derivatives of Hsp90 inhibitor peptides sensitize cancer cells with overexpression of MDR to epirubicin (a class of anthracyclines that includes DOX) (Molnar et al., (2007) In Vivo 21: 429-433).

For data set [7], the system named is DOX-resistant V79/ADR lung cancer cells. As to the kind of experiment: Sensitivity to DOX, Alamar Blue assay. In kind it is cell-based. To be noted: DOX 0.31-10 μM with inhibitor (CP9 8 μM), 24 h. As for the experimental part: as §1, §2
(The colour change of resazurin is a common sign of viable cells or microbes.)

The structures appear in SMILES notation.

As usually defined, the logP is a log measure of how a compound divides between an organic and an aqueous phase. Read a high logP as higher lipophilicity. Turning to `Cc1cc(NC(=O)CSc2nc(-c3cccs3)cc(C(F)(F)F)n2)no1` [CP9, N-(5-methylisoxazol-3-yl)-2-(4-(thiophen-2-yl)-6-(trifluoromethyl)pyrimidin-2-ylthio)acetamide], the “body weight vs carrier control-treated mice” value in data set [1] is reported as “no significant decreases in weight”. Moreover, the IC50 in data set [2] came to 0.45 µM; in data set [5] it was 15.3 µM. The same compound registered a logP in data set [3] of 4.1. Further, the “expression of Hsp90 client proteins” value in data set [4] was “no effect”. In data set [6], the “sensitivity of drug-sensitive V79 cells to DOX” value was “did not affect the sensitivity”. Further, the “sensitivity of drug-resistant V79/ADR cells to DOX” value in data set [7] is reported as “partially restored the sensitivity”.
